Measurements: publication PMC8136874, “The entry reaction of the plant shikimate pathway is subjected to highly complex metabolite-mediated regulation” (The Plant Cell, 2021)
One block for each molecule: values may come before it.

What was measured:
[1] = molecular target: AthDHS3 (Arabidopsis thaliana, UniProt Q9SK84); assay: DHS enzymatic activity assay with recombinant AthDHS3; type: biochemical; conditions: for V max: various concentrations of the substrate, means ± SEM, n = 3
Description: (§1) Unless otherwise noted, DHS enzymatic activity was monitored as previously described ([Liu et al., 2008]), with several optimizations for high-throughput assays with eight-strip PCR tubes and a thermal cycler. The enzyme solution (7.7 µL) containing 50 mM HEPES (pH 7.4) was preincubated with an effector molecule(s) at room temperature for 10 min. For assays using recombinant protein and enzyme fraction isolated from plant leaves, 0.01–0.05 µg and approximately 50 µg of proteins were used, respectively. After adding 0.5 µL of 0.1 M DTT, the samples were further incubated at room temperature for 15 min. […] The enzyme reaction was started by adding 6.8 µL of the substrate solution, then incubated at 37°C for 20 min, and terminated by adding 30 µL of 0.6 M trichloroacetic acid. After brief centrifugation, 5 µL of 200 mM NaIO4 (sodium meta-periodate) in 9 N H3PO4 was added to oxidize the enzymatic product and incubate at 25°C for 20 min. To stop the oxidation reaction, 20 µL of 0.75 M NaAsO2 (sodium arsenite), which was dissolved in 0.5 M Na2SO4 and 0.05 M H2SO4, was immediately mixed. After 5 min of incubation at room temperature, one-third of the sample solution was transferred to a new tube to be mixed with 50 µL of 40 mM thiobarbituric acid and incubated at 99°C for 15 min in a thermal cycler. Developed pink chromophore was extracted by putting the final solutions with 600 µL of cyclohexanone in eight-strip solvent-resistant plastic tubes, mixing vigorously and centrifuging them at 4,500 × g for 3 min to separate water- and cyclohexanone-based layers. The absorbance of the pink supernatant was read at 549 nm with the microplate reader (Infinite 200 PRO, TECAN, Männedorf, Switzerland) to calculate DAHP production with the molar extinction coefficient at 549 nm (ε = 549 nm) of 4.5 × 10^4/M/cm. Reaction mixtures with boiled enzyme or without any substrates were run in parallel and used as negative controls to estimate the background signal for recombinant enzymes or enzymatic fraction from plant tissues, respectively.
(§2) For determination of kinetic parameters, the data of enzymatic activities measured in the presence of various concentration of substrates were calculated with the Michaelis–Menten equation in Graphpad Prism 6 (GraphPad Software, San Diego, CA, USA).

[2] = molecular target: T1, AthDHS1 (Arabidopsis thaliana, UniProt P29976); assay: DHS enzymatic activity assay with recombinant AthDHS1; type: biochemical; conditions: for effect on AthDHS1 activity (in words): 1 mM effector; for K m / V max / k cat: various concentrations of the substrate, means ± SEM, n = 3
T1 construct: AthDHS1; residues 49–525; hexa-histidine; made in house; host or cells: E. coli Rosetta2 (DE3), pET28a
Description: as §1, §2

[3] = molecular target: T2, AthDHS2 (Arabidopsis thaliana, UniProt Q00218); assay: DHS enzymatic activity assay with recombinant AthDHS2; type: biochemical; conditions: for effect on AthDHS2 activity (in words) / inhibition of AthDHS2 activity: 1 mM effector; for k cat / K m / V max: various concentrations of the substrate; for k cat: E4P values assume no substrate inhibition; for K m / V max: E4P values estimated from Lineweaver–Burk plots because of substrate inhibition
T2 construct: AthDHS2; residues 34–507; hexa-histidine; made in house; host or cells: E. coli Rosetta2 (DE3), pET28a

[4] = tested on: root growth of Arabidopsis Col-0 and dhs mutants; assay: Chemical feeding experiment, root length of 10-day-old seedlings; type: in vivo, Arabidopsis thaliana
Description: Chemical feeding experiments were carried out as described previously ([de Oliveira et al., 2019]) with some modifications. Seedlings were grown on agar plates containing 0.5 MS with 1% sucrose, 0.8% agar, and 2.5 mM MES at pH 5.7 in the growth chamber where we grew other plants in soil. AAAs and/or shikimate were added to autoclaved media after cooling down to temperatures below 55°C. Plants were grown on the same plate side by side to minimize environmental effects, and multiple plates were prepared to obtain replications. Root lengths of 10-day-old seedlings were quantified by ImageJ.

T1 sequence (P29976 49-525): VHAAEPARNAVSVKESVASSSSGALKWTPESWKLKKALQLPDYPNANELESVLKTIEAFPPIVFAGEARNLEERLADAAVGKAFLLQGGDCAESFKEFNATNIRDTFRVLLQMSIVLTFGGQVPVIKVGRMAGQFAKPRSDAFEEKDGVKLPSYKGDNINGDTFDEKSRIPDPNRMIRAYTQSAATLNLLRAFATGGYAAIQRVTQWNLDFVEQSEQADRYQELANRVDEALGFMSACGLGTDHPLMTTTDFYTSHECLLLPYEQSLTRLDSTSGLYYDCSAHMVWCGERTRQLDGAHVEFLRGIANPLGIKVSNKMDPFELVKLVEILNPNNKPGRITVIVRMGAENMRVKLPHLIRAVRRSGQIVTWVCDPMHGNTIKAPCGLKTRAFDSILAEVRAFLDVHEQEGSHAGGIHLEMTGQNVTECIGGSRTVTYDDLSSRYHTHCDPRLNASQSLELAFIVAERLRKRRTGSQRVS
T2 sequence (Q00218 34-507): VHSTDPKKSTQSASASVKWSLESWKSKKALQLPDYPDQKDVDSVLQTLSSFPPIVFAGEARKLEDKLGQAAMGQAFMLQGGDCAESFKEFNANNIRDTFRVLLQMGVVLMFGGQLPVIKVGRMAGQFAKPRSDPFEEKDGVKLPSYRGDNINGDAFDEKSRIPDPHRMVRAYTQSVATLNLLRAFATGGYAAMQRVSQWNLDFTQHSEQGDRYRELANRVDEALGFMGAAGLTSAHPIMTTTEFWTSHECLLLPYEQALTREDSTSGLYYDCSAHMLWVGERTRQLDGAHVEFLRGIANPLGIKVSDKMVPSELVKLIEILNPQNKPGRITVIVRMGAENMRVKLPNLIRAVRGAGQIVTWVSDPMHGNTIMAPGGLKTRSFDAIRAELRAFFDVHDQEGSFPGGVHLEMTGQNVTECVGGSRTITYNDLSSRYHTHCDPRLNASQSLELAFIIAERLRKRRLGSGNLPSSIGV
Chain of AthDHS3 (Q9SK84 entry or part of it): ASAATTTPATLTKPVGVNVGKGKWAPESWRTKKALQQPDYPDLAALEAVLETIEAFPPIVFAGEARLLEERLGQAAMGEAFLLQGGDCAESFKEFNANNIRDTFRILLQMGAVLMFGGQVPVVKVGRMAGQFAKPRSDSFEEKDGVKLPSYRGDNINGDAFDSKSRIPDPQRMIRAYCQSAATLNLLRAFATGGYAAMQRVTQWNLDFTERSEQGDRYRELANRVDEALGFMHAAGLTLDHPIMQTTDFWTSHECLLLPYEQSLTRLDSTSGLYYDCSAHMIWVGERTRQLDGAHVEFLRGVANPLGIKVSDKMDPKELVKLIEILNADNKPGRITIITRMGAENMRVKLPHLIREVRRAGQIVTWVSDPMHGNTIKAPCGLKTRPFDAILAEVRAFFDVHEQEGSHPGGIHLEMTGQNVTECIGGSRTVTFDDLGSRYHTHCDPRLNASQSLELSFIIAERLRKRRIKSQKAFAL

Structure (SMILES): O=C(/C=C/c1ccc(O)c(O)c1)OC1CC(C(=O)O)=CC(O)C1O (stereo not shown) [Caffeoyl shikimate]
reduction of AthDHS3 activity ([1]; 1 mM effector): 70%
effect on AthDHS1 activity (in words) [2]: fully inhibited
effect on AthDHS2 activity (in words) [3]: fully inhibited

V max [1]: 9.92 ± 0.31 nmol/µM/min
K m [2]: 2842 ± 910 µM
V max [2]: 17.8 ± 0.59 nmol/µM/min
k cat [2]: 16.4 ± 0.54 s⁻¹
substrate concentration beyond which AthDHS2 was inhibited ([3]; substrate inhibition): > 4 mM
k cat [3]: 11.8 ± 1.6 s⁻¹
K m [3]: 1755 ± 400 µM
V max [3]: 12.9 ± 1.8 nmol/µM/min
Structure (SMILES): O=C[C@H](O)[C@H](O)COP(=O)(O)O [E4P, D-erythrose 4-phosphate]

V max [1]: 9.15 ± 0.27 nmol/µM/min
K m [2]: 250 ± 53 µM
V max [2]: 15.3 ± 0.62 nmol/µM/min
k cat [2]: 14 ± 0.57 s⁻¹
k cat [3]: 8.95 ± 0.44 s⁻¹
K m [3]: 360 ± 34 µM
V max [3]: 9.81 ± 0.48 nmol/µM/min
Structure (SMILES): C=C(OP(=O)(O)O)C(=O)O [PEP, phosphoenolpyruvate]

effect on AthDHS1 activity (in words) [2]: did not affect
Structure (SMILES): N[C@@H](CC(=O)O)C(=O)O [aspartate]

Structure (SMILES): O=C(O)/C=C/c1ccccc1 [cinnamate]
effect on AthDHS3 activity (in words) ([1]; 1 mM effector): no effects
effect on AthDHS1 activity (in words) [2]: no effects
effect on AthDHS2 activity (in words) [3]: no effects

Structure (SMILES): COc1cc(/C=C/C(=O)O)ccc1O [ferulate]
effect on AthDHS3 activity (in words) ([1]; 1 mM effector): no effects
effect on AthDHS1 activity (in words) [2]: no effects
effect on AthDHS2 activity (in words) [3]: no effects

Structure (SMILES): O=C(O)/C=C/c1ccc(O)cc1 [p-coumarate]
effect on AthDHS3 activity (in words) ([1]; 1 mM effector): no effects
effect on AthDHS1 activity (in words) [2]: no effects
effect on AthDHS2 activity (in words) [3]: no effects

effect on AthDHS3 activity (in words) ([1]; 1 mM effector): did not significantly affect
effect on AthDHS1 activity (in words) [2]: did not significantly affect
inhibition of AthDHS2 activity [3]: ~25%
Structure (SMILES): O=C(O)C(=O)CC1(C(=O)O)C=CC(O)C=C1 (stereo not shown) [prephenate]

Structure (SMILES): O=C(O)C1=C[C@@H](O)[C@@H](O)[C@H](O)C1 [shikimate]
effect on AthDHS3 activity (in words) ([1]; 1 mM effector): did not significantly affect
sensitivity of root growth ([4]; dhs mutants, up to 1000 µM): none of the dhs mutants showed sensitivity
effect of the added compound on Trp-mediated root growth inhibition of dhs3 ([4]; media with 300 µM Trp, AAAs added at 300 µM, shikimate at 500 µM): no effect
effect of the added compound on Tyr-mediated root growth inhibition of dhs1 ([4]; media with 300 µM Tyr, AAAs added at 300 µM, shikimate at 500 µM): no effect
effect on AthDHS1 activity (in words) [2]: did not significantly affect
inhibition of AthDHS2 activity [3]: approximately 30%

Structure (SMILES): COc1cc(/C=C/C(=O)O)cc(OC)c1O [sinapate]
effect on AthDHS3 activity (in words) ([1]; 1 mM effector): no effects
effect on AthDHS1 activity (in words) [2]: no effects
effect on AthDHS2 activity (in words) [3]: no effects
